{
  "source": "patent US20080299599A1",
  "about": "“FLUORESCENT PROTEINS FOR MONITORING INTRACELLULAR SUPEROXIDE PRODUCTION” (priority 2006, published 2008)",
  "key": {"[1]": {"system": "superoxide flashes in rat cardiac myocytes", "experiment": "Confocal imaging of superoxide flashes in cardiac myocytes expressing mt-cpYFP", "type": "cell-based", "conditions": "for occurrence of superoxide flashes: cardiac myocytes", "method": "Similar conditions were used when expressing mt-cpYFP in other cell types. […] Briefly, cells were loaded with 4 μM rhod-2 AM (after NaBH4 quenching) at 4° C. for 1 hr, and then changed to normal culture medium for 4 hrs. […] Digital image processing was performed using IDL software (Research Systems) and customer-devised programs."}, "[2]": {"system": "rat PC12 pheochromocytoma cells", "type": "cell-based", "conditions": "for occurrence of superoxide flashes: ρ− PC12 cells; for incidence of superoxide flashes: ethidium bromide 200 ng/ml for 60 days, PC12 cells", "source_text": "(§1) Enzymatically isolated rat ventricular myocytes and hippocampal neurons in primary culture were infected with adenovirus carrying the mt-cpYFP gene or its mutants at an m.o.i. of 1:100 and cultured for 2 to 3 days (Zhou et al., Am. J. Physiol. Heart Circ. Physiol., 279; H429-H436, 2000). Similar conditions were used when expressing mt-cpYFP in other cell types. To obtain spatially and temporally resolved fluorescent images of mt-cpYFP, a Zeiss LSM 510 confocal microscope equipped with a 63×, 1.3NA oil immersion objective and a sampling rate of 0.7 s/frame was used. Dual wavelength excitation imaging of mt-cpYFP was achieved by alternating excitation at 405 and 488 nm and collecting emission at >505 nm. Tri-wavelength excitation imaging of mt-cpYFP and TMRM (20 nM) or rhod-2 was achieved by tandem excitation at 405, 488, and 543 nm, and the emission was collected at 515-550, 515-550 and >560 nm, respectively. To increase mitochondrion retention of rhod-2, the indicator loading protocol described by Hajnoczky C et al. was used with modification (Hajnoczky et al., Cell, 82: 415-424, 2000). Briefly, cells were loaded with 4 μM rhod-2 AM (after NaBH4 quenching) at 4° C. for 1 hr, and then changed to normal culture medium for 4 hrs. The standard extracellular perfusion solution contained (in mM): NaCl 137, KCl 4.9, CaCl21, MgSO4 1.2, NaH2PO4 1.2, glucose 15, and HEPES 20 (pH 7.4). Digital image processing was performed using IDL software (Research Systems) and customer-devised programs.\n(§2) ρ° 143B TK human osteosarcoma cells and its wild type control were a generous gift from Dr. Nadja C. de Souza-Pinto (National Institute on Aging, NIH). Wild type and ρ° 143B cells were cultured under identical conditions, in DMEM medium supplemented with 10% FBS, 100 μg/ml pyruvate, 100 μg/ml bromodeoxyuridine and 50 μg/ml uridine17. Mitochondria of ρ° 143B cells completely lack mitochondrial respiration, due to the loss of critical ETC proteins including constituents of complex I (ND1-6, ND4L), complex III (cytochrome b) and complex IV (COX I-III) encoded by mitochondrial DNA. To partially deplete mitochondrial DNA and allow partial disruption of mitochondrial respiration, PC12 pheochromocytoma cells were cultured in DMEM medium with 10% FBS, 200 ng/ml ethidium bromide, 100 μg/ml pyruvate and 50 μg/ml uridine for up to 60 days. Depletion of mitochondrial DNA was evidenced by western blot analysis of cytochrome C oxidase subunit I."}, "[3]": {"system": "ρ° 143B TK-human osteosarcoma cells", "experiment": "Superoxide flashes in mitochondrial DNA-deleted ρ° 143B cells", "type": "cell-based", "conditions": "atractyloside 20 μM", "source_text": "as §1, with “Digital image processing was performed using IDL software (Research Systems) and customer-devised programs.” left out"}, "[4]": {"system": "superoxide flashes in cardiac myocytes", "experiment": "Superoxide flashes in cardiac myocytes during hypoxia and reoxygenation", "type": "cell-based, rat", "conditions": "diazoxide 30 μM added 20 min prior to hypoxia", "source_text": "as §1, with “Digital image processing was performed using IDL software (Research Systems) and customer-devised programs.” left out"}, "[5]": {"system": "cytochrome C oxidase subunit I (COX-1)", "experiment": "Western blot of cytochrome C oxidase subunit I in ethidium bromide-treated PC12 cells", "type": "cell-based, rat", "conditions": "ethidium bromide 200 ng/ml for 60 days", "method": "as §2"}, "cellular ROS production": {"system": "cellular ROS production", "conditions": "previous finding, Aon et al. 2003; cited from earlier work"}, "[6]": {"experiment": "Spectral analysis of purified cpYFP: in vitro redox calibration and response to ROS and metabolites", "type": "biochemical", "method": "cpYFP cDNA (807 bp) was cloned into a prokaryotic expression vector (pRSET) and transferred into E. Coli cell line (BL21(DE3)LysS) for large-scale protein expression. In vitro redox calibration of cpYFP fluorescence was carried out using methods described previously (Hanson et al., J. Biol. Chem., 279: 13044-13053, 2004). Briefly, under an inert environment, purified cpYFP protein (1 μM) was incubated with either 10 mM reduced DTT or 1 mM aldrithiol for at least 3 hours, allowing for solution equilibration. Reduced DTT was removed from the solution allowing measurement of cpYFP response to various ROS and metabolites. The calibration solution contained (in mM): HEPES 75, KCl 125, and EDTA 1, pH=8.0. Emission and excitation spectra of reduced and oxidized cpYFP in the presence of designated reagents were obtained with a spectrofluorimeter (Model: CM1T101, HORIBA Jobin Yvon, Inc.) filled with nitrogen gas.\nUsing cpYFP purified from an E. coli expression system, excitation and emission fluorescence spectra were measured in response to reducing (10 mM reduced DTT) and oxidizing manipulations (1 mM aldrithiol). […] Extensive in vitro experiments were performed to determine the selectivity of cpYFP among physiologically relevant oxidants and metabolites. […] The cpYFP signal, however, was insensitive to hydrogen peroxide (H2O2) over a wide range of concentrations (0.1-10 mM) (FIG. 1c) and peroxynitrite (FIG. 2), and was decreased by hydroxyl radicals (.OH) (FIG. 1c) and nitric oxide (FIG. 2)."}},
  "note": "Where two headings read alike, the source gives them in different places.",
  "data": [
    {"compound": "C=C(C)[C@H]1Cc2c(ccc3c2O[C@@H]2COc4cc(OC)c(OC)cc4[C@@H]2C3=O)O1", "note": "[Rotenone]", "values": [
      {"measurement": "occurrence of superoxide flashes", "setting": "[1]; rotenone 5 μM", "value": "virtually abolished"},
      {"measurement": "occurrence of superoxide flashes", "setting": "[2]; rotenone 5 μM", "value": "virtually abolished"}
    ]},
    {"compound": "C=C1[C@@H]2CC[C@H]3[C@]4(C)C[C@H](O[C@@H]5O[C@H](CO)[C@@H](OS(=O)(=O)O)[C@H](OS(=O)(=O)O)[C@H]5OC(=O)CC(C)C)C[C@@H](C(=O)O)[C@H]4CC[C@]3(C2)[C@H]1O", "note": "[atractyloside]", "values": [
      {"measurement": "effect on superoxide flash frequency", "setting": "[1]; atractyloside 20 μM", "value": "significantly augment superoxide flash frequency"},
      {"measurement": "rescue of superoxide flashes in ρ° cells", "setting": "[3]", "value": "cannot be rescued"}
    ]},
    {"compound": "CO[C@H](C/C=C\\C=C\\CC/C=C/C[C@H](C)/C=C/C(=C\\C(=O)O)CC(=O)O)/C(C)=C\\C=C(/C)C(=O)O", "note": "[bongkrekic acid]", "values": [
      {"measurement": "effect on superoxide flash amplitude", "setting": "[1]; bongkrekic acid 100 μM", "value": "reducing their amplitude"},
      {"measurement": "effect on superoxide flash kinetics", "setting": "[1]; bongkrekic acid 100 μM", "value": "abbreviating their kinetics"},
      {"measurement": "incidence of superoxide flashes", "setting": "[1]; bongkrekic acid 100 μM", "value": "33 % of control"}
    ]},
    {"compound": "CC1=NS(=O)(=O)c2cc(Cl)ccc2N1", "note": "[diazoxide]", "values": [
      {"measurement": "effect on rebound flurry of superoxide flash activity after reoxygenation", "setting": "[4]", "value": "effectively protected the cells from the rebound flurry of superoxide flash activity"}
    ]},
    {"compound": "CC[n+]1c(-c2ccccc2)c2cc(N)ccc2c2ccc(N)cc21", "note": "[ethidium bromide]", "values": [
      {"measurement": "cytochrome C oxidase subunit I (COX-1) expression", "setting": "[5]", "value": "70 % of control"},
      {"measurement": "incidence of superoxide flashes", "setting": "[2]", "value": "60 % of control"},
      {"measurement": "incidence of superoxide flashes", "setting": "[2]; wild type 63±6", "value": "23±3 events per 1000 μm2 cell area per 100 s"}
    ]},
    {"compound": "O=S(=O)(O)c1cc(O)c(O)c(S(=O)(=O)O)c1", "note": "[tiron]", "values": [
      {"measurement": "effect on frequency and amplitude of flashes", "setting": "[1]; tiron 1 mM", "value": "similarly diminished the frequency and amplitude of flashes"}
    ]},
    {"compound": "C160A/C182A: SEQ ID NO. 1 with both cysteines C160 and C182 substituted to alanine", "values": [
      {"measurement": "response of the probe to superoxide after cysteine substitution", "setting": "[1]; residue numbering of SEQ ID NO. 1", "value": "completely abolishes the response of the probe to superoxide"}
    ]},
    {"compound": "MnTMPyP", "values": [
      {"measurement": "inhibition of flash activity", "setting": "[1]; MnTMPyP 50 μM", "value": 83, "unit": "%"},
      {"measurement": "flash amplitude (ΔF/F0)", "setting": "[1]; MnTMPyP 50 μM, n=12, p<0.01 vs control", "value": "0.18±0.02"}
    ]},
    {"compound": "antimycin A", "values": [
      {"measurement": "occurrence of superoxide flashes", "setting": "[1]; antimycin A 5 μg/ml", "value": "virtually abolished"},
      {"measurement": "effect on cellular ROS production measured with DCF", "setting": "cellular ROS production", "value": "increases cellular ROS production"},
      {"measurement": "occurrence of superoxide flashes", "setting": "[2]; antimycin A 5 μg/ml", "value": "virtually abolished"}
    ]},
    {"compound": "cpYFP: circularly permuted yellow fluorescent protein; superoxide probe of SEQ ID NO. 1, pericam without calmodulin and M13 domains", "values": [
      {"measurement": "brightness of oxidized cpYFP versus fully reduced species", "setting": "[6]; 1 mM aldrithiol vs 10 mM reduced DTT, excited at 488 nm", "value": "about five times brighter"},
      {"measurement": "cpYFP signal response to other metabolites", "setting": "[6]; ATP, ADP, NAD(P)+, NAD(P)H and Ca2+ at physiological concentrations", "value": "negligible or only marginal effects"},
      {"measurement": "cpYFP signal response to hydroxyl radicals", "setting": "[6]; Fenton reaction, 1 mM H2O2 plus 0.1 mM FeSO4, anaerobic", "value": "decreased"},
      {"measurement": "cpYFP signal response to hydrogen peroxide", "setting": "[6]; H2O2 0.1-10 mM", "value": "insensitive"},
      {"measurement": "cpYFP signal response to peroxynitrite", "setting": "[6]; SIN-1 1 mM in aerobic solution", "value": "insensitive"},
      {"measurement": "cpYFP signal response to nitric oxide", "setting": "[6]; SIN-1 1 mM in anaerobic solution", "value": "decreased"},
      {"measurement": "cpYFP brightness dependence on pH", "setting": "[6]; basic environments, e.g. mitochondrial matrix pH 8.0", "value": "brighter in basic environments"},
      {"measurement": "increase of cpYFP fluorescence in response to O2.−", "setting": "[6]; xanthine/xanthine oxidase (2 mM/20 mU), aerobic, compared to fully reduced state", "value": 420, "unit": "%"}
    ]}
  ]
}
